Where two headings read alike, the source gives them in different places.
Tests used:
[1] = test system: Nrf2 transcription factor activation (Nrf2/Keap1/ARE); experiment: Nrf2-responsive transient DLR reporter gene assay (pGL4.37 + pRL-CMV) in ZFL cells; type: cell-based, zebrafish (Danio rerio); conditions: for EC50: 4PL regression, normalized induction
Source text: A transient reporter gene assay for the assessment of oxidative stress in the ZFL cell line had been described previously (Lungu-Mitea and Lundqvist [2020]), and was applied here in an identical manner. Please consult the respective chapter within the SI for more details.
ZFL cells were also transiently co-transfected with the Nrf2-responsive reporter vector pGL4.37 and the normalization vector pRL-CMV, as described in (Lungu-Mitea and Lundqvist [2020]). The transcription factor Nrf2 is a central regulator of the oxidative stress response pathways (Nrf2/Keap1/ARE) (Itoh et al. [2004]) and a keystone in the regulation of oxidative stress detoxification, metabolism, and induction of related phase-II enzymes (e.g., GST, NQO1, HO-1). Detailed descriptions, results, and discussion are given in the respective section of the SI (p. 12–14; Figs. S10 + 11, Table S4). […]
(§1) 132 To undermine the “maisonette” squelching hypothesis, Comptox data regarding the induction of cellular
(§2) 133 stress response pathways were backed up by empirical data in ZFL cell lines. Therefore, ZFL cells were
(§3) 134 transiently co-transfected with the Nrf2-responsive reporter vector pGL4.37 and the normalization
(§4) 135 vector pRL-CMV, as described in (Lungu-Mitea and Lundqvist 2020). Experimental design, data
(§5) 136 handling, and statistical evaluation were identical to procedures described in the main manuscript. The
137 transcription factor Nrf2 is a central regulator of the oxidative stress response pathways
138 (Nrf2/Keap1/ARE) (Itoh et al. 2004) and a keystone in the regulation of oxidative stress detoxification,
139 metabolism, and induction of related phase-II enzymes (e.g. GST, NQO1, HO-1).
141 S10). […] Statistically
143 of the Nrf2-related luciferase signal.
144 optical inspection under the microscope ( not illustrated), leading to artefact effects in the luciferase
145 measurement. Therefore, specific points were excluded from the analysis and deemphasized in fig. S10.
146 Possibly, compound aggregation led to a flattening of the cytotoxicity curve in fig. S10. Compound
147 aggregation at higher molar concentratio ns has been discussed in (Owen et al. 2012, 2014) .
148 Concentrations up to cytotoxicity were used to derive a sigmoidal concentration -response relationship
149 (fig. S11). The computed parameters are depicted in tab. S4.

[2] = Optical inspection under the microscope for crystalized aggregates in exposure medium; type: physicochemical; conditions: BNF in exposure medium, ZFL cell culture
Source text: TOX21_ARE_BLA_agonist_ratio NFE2L2 nuclear factor, 0.985 DNA binding
ATG_ERE_CIS_up ESR1 estrogen receptor 1 1.06 nuclear receptor
TOX21_ARE_BLA_Agonist_ch2 – – 1.22 channel 2
ATG_PXRE_CIS_up NR1I2 nuclear receptor 2.24 nuclear receptor
ATG_ERa_TRANS_up ESR1 estrogen receptor 1 2.86 nuclear receptor
TOX21_AR_LUC_MDAKB2_Ago AR androgen receptor 3.69 nuclear receptor
ATG_VDRE_CIS_up VDR vitamin D (1,25- 4.28 nuclear receptor
TOX21_AhR_LUC_Agonist AHR aryl hydrocarbon 4.44 DNA binding
TOX21_ERa_LUC_VM7_Agonist ESR1 estrogen receptor 1 5.15 nuclear receptor
TOX21_AR_LUC_MDAKB2_Ago AR androgen receptor 5.43 nuclear receptor
TOX21_CAR_Agonist NR1I3 nuclear receptor 6.07 nuclear receptor
ATG_PXR_TRANS_up NR1I2 nuclear receptor 6.58 nuclear receptor
as §1, §2, §3, §4, §5
137 transcription factor Nrf2 is a central regulator of the oxidative stress response pathways […]

[3] = target: GLI3 (DNA binding); design: method as in ToxCast database, CompTox dashboard; conditions: TOX21_SSH_3T3_GLI3_Agonist; ref ToxCast database, CompTox dashboard; cited from earlier work
[4] = target: ESRRA (estrogen-related receptor alpha); design: method as in ToxCast database, CompTox dashboard; conditions: TOX21_PGC_ERR_Agonist; ref ToxCast database, CompTox dashboard; cited from earlier work
[5] = test system: AHR (aryl hydrocarbon receptor); design: method as in ToxCast database, CompTox dashboard; conditions: ATG_Ahr_CIS_up; ref ToxCast database, CompTox dashboard; cited from earlier work
[6] = target: HDAC (hydrolase); design: method as in ToxCast database, CompTox dashboard; conditions: TOX21_HDAC_Inhibition; ref ToxCast database, CompTox dashboard; cited from earlier work
[7] = test system: PPARG (peroxisome proliferator-activated receptor gamma); design: method as in ToxCast database, CompTox dashboard; conditions: ATG_PPARg_TRANS_up; ref ToxCast database, CompTox dashboard; cited from earlier work
[8] = test system: NFE2L2 (nuclear factor, erythroid 2-like 2); design: method as in ToxCast database, CompTox dashboard; conditions: TOX21_ARE_BLA_agonist_ratio; ref ToxCast database, CompTox dashboard; cited from earlier work
[9] = target: ESR1 (estrogen receptor 1); design: method as in ToxCast database, CompTox dashboard; conditions: ATG_ERE_CIS_up; ref ToxCast database, CompTox dashboard; cited from earlier work
[10] = test system: ARE (channel 2); design: method as in ToxCast database, CompTox dashboard; conditions: TOX21_ARE_BLA_Agonist_ch2; ref ToxCast database, CompTox dashboard; cited from earlier work
[11] = target: AR (androgen receptor); design: method as in ToxCast database, CompTox dashboard; conditions: TOX21_AR_LUC_MDAKB2_Agonist_3uM_Nilutamide; ref ToxCast database, CompTox dashboard; cited from earlier work
[12] = target: ESR1 (estrogen receptor 1); design: method as in ToxCast database, CompTox dashboard; conditions: TOX21_ERa_LUC_VM7_Agonist; ref ToxCast database, CompTox dashboard; cited from earlier work
[13] = test system: NR1I3 (nuclear receptor subfamily 1, group I, member 3); design: method as in ToxCast database, CompTox dashboard; conditions: TOX21_CAR_Agonist; ref ToxCast database, CompTox dashboard; cited from earlier work
[14] = test system: NR1I2 (nuclear receptor subfamily 1, group I, member 2); design: method as in ToxCast database, CompTox dashboard; conditions: ATG_PXR_TRANS_up; ref ToxCast database, CompTox dashboard; cited from earlier work

O=c1cc(-c2ccccc2)oc2ccc3ccccc3c12 [BNF, β-naphthoflavone]
LOEC of Nrf2 induction ([1]; BNF exposure range of 3 pM to 1 mM, pGL4.37 + pRL-CMV): 30 nM
Slope (CI) of 4PL regression ([1]; BNF, pGL4.37 + pRL-CMV): 0.77 (0.43-1.62)
EC50 ([1]; BNF, pGL4.37 + pRL-CMV): 9.7 nM
EC50 ([1]; Danio rerio, BNF, pGL4.37 + pRL-CMV): 9.68 nM
maximal Nrf2 induction ([1]; at 100 nM BNF, pGL4.37 + pRL-CMV): 3.4 fold
AC50 [3]: 33.9 nM
AC50 [4]: 189 nM
AC50 [6]: 513 nM
AC50 [7]: 750 nM
AC50 [8]: 985 nM
AC50 [9]: 1060 nM
AC50 [10]: 1220 nM
AC50 [11]: 3690 nM
AC50 [12]: 5150 nM
AC50 [13]: 6070 nM
AC50 [14]: 6580 nM

Reference: paper PMC10406726, “Development, scrutiny, and modulation of transient reporter gene assays of the xenobiotic metabolism pathway in zebrafish hepatocytes” (Cell Biology and Toxicology, 2021)
